The NIST ThermoML archive (doi:10.1021/je049796y)

Assay: xn = mol fraction of the nth substance listed
Settings: 283.65 K, Vibrating tube method

C=C [ethene] + CCO
Settings | mass density [kg/m3]
Liquid mixture 1, x1 = 0.685 | 529.3
Liquid mixture 1, x1 = 0.712 | 503.5
Liquid mixture 2, x1 = 0.862 | 410
Liquid mixture 2, x1 = 0.892 | 385.6

Liquid
Settings | mass density [kg/m3]
x1 = 0.101 | 767.8
x1 = 0.178 | 741.9
x1 = 0.268 | 708.7
x1 = 0.408 | 661.3
x1 = 0.512 | 614.1
x1 = 0.614 | 564.2
x1 = 0.94 | 347.3
x1 = 0.989 | 295.1
